Read-outs that look alike come from different tables or passages of the source.
What was measured:
human DGKα [1] = molecular target: T1, human DGKα (Homo sapiens (Human), UniProt P23743); assay: biochemical; details: detergent/lipid micelle substrate; read-out: DGKα IC50
Procedure, shortened: (§1)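 Enzymes were baculovirus/Sf9 full-length human DGKα or DGKζ with His tag. The substrate was PS/DAG in octyl glucoside micelles, in MOPS pH 7.5 buffer with NaCl, MgCl2, CaCl2 and DTT.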

human DGKζ [2] = molecular target: T2, human DGKζ (Homo sapiens (Human), UniProt Q13574); assay: DGKζ LIPGLO assay (extruded liposome substrate); type: biochemical; details: extruded liposome substrate; read-out: DGKζ LIPGLO IC50
Description: (§2) The DGKα and DGKζ reactions were performed using either extruded liposome (DGKα and DGKζ LIPGLO assays) or detergent/lipid micelle substrate (DGKα and DGKζ assays). The reactions were carried out in 50 mM MOPS pH 7.5, 100 mM NaCl, 10 mM MgCl2, 1 μM CaCl2, and 1 mM DTT (assay buffer). The reactions using a detergent/lipid micelle substrate also contained 50 mM octyl B-D-glucopyranoside.
(§3) A 5 mL enzyme/substrate solution at 2× final reaction concentration was prepared by combining 2.5 mL 4× enzyme solution (20 nM DGKα or DGKζ (prepared as described below) in assay buffer) and 2.5 mL of either 4× liposome or 4× detergent/lipid micelle solution (compositions described below) and incubated at room temperature for 10 minutes. Next, 1 μL 2× enzyme/substrate solution was added to wells containing the test compound and reactions were initiated with the addition of 1 μL 300 uM ATP. The reactions were allowed to proceed for 1 hr, after which 2 μL Glo Reagent (Promega V9101) was added and incubated for 40 minutes. Next, 4 μL Kinase Detection Reagent was added and incubated for 30 minutes. Luminescence was recorded using an EnVision microplate reader. […] The compounds were evaluated at 11 concentrations to determine IC50.
(§4) The PC, DAG, and PS were dissolved in chloroform, combined, and dried in vacuo to a thin film. The lipids were hydrated to 20 mM in 50 mM MOPS pH 7.5, 100 mM NaCl, 5 mM MgCl2, and were freeze-thawed five times. The lipid suspension was extruded through a 100 nm polycarbonate filter eleven times. […] The liposome preparation was stored at 4° C. for as long as four weeks.
Baculovirus amplification was achieved using infected Sf9 cells at 1:1500 virus/cell ratios, and grown for 65 hours at 27° C. post-transfection.
(§5) The expression scale up for each protein was carried out in the Cellbag 50 L WAVE-Bioreactor System 20/50 from GE Healthcare Bioscience. 12 L of 2×10^6 cells/mL Sf9 cells (Expression System, Davis, Calif.) grown in ESF921 insect medium (Expression System) were infected with virus stock at 1:200 virus/cell ratios, and grown for 66-68 hours at 27° C. post-infection. The infected cell culture was harvested by centrifugation at 2000 rpm for 20 min 4° C. in a SORVALL® RC12BP centrifuge. The cell pellets were stored at −70° C. until purification.
The cells were lysed using nitrogen cavitation method with a nitrogen bomb (Parr Instruments), and the lysates were clarified by centrifugation. […] The three steps column chromatography included nickel affinity resin capture (i.e. HisTrap FF crude, GE Healthcare), followed by size exclusion chromatography (i.e. HiLoad 26/600 Superdex 200 prep grade, GE Healthcare for DGK-alpha, and HiPrep 26/600 Sephacryl S 300_HR, GE Healthcare for DGK-zeta). The third step was ion exchange chromatography, and differed for the two isoforms. DGKα was polished using Q-Sepharose anion exchange chromatography (GE Healthcare). DGKζ was polished using SP Sepharose cation exchange chromatography (GE Healthcare). The proteins were delivered at concentrations of ≥2 mg/mL. The formulation buffers were identical for both proteins: 50 mM Hepes, pH 7.2, 500 mM NaCl, 10% v/v glycerol, 1 mM TCEP, and 0.5 mM EDTA.

human DGKζ [3] = molecular target: T2, human DGKζ; assay: DGKζ assay (detergent/lipid micelle substrate); type: biochemical; details: detergent/lipid micelle substrate; read-out: DGKζ IC50
Procedure, shortened: as §1

human DGKα [4] = molecular target: T1, human DGKα; assay: DGKα LIPGLO assay (extruded liposome substrate); type: biochemical
Description: as §2, with “B-D-glucopyranoside. […] The lipid substrate concentrations were […], 0.25 mM DAG, and 2.75 mM PC for the extruded liposome reactions.” for “B-D-glucopyranoside.”
as §3, with “The compound inhibition studies were carried out as follows: 50 nL droplets of each test compound (top concentration 10 mM with 11 point, 3-fold dilution series for each compound) solubilized in DMSO were transferred to wells of a white 1536 well plate (Corning 3725). A 5” for “A 5”
as §4
Human DGK-alpha-TVMV-His-pFBgate and human DCK-zeta-transcript variant-2-TVMV-His-pFBgate baculovirus samples were generated using the Bac-to-Bac baculovirus expression system (Invitrogen) according to the manufacturer's protocol. The DNA used for expression of DGK-alpha and DGK-zeta have SEQ ID NOs: 1 and 3, respectively. Baculovirus amplification was achieved using infected Sf9 cells at 1:1500 virus/cell ratios, and grown for 65 hours at 27° C. post-transfection.
as §5
Full length human DGKα and DGKζ, each expressed containing a TVMV-cleavable C-terminal Hexa-His tag sequence (SEQ ID NOs: 2 and 4, respectively) and produced as described above, were purified from Sf) baculovirus-infected insect cell paste. The cells were lysed using nitrogen cavitation method with a nitrogen bomb (Parr Instruments), and the lysates were clarified by centrifugation. […] The three steps column chromatography included nickel affinity resin capture (i.e. HisTrap FF crude, GE Healthcare), followed by size exclusion chromatography (i.e. HiLoad 26/600 Superdex 200 prep grade, GE Healthcare for DGK-alpha, and HiPrep 26/600 Sephacryl S 300_HR, GE Healthcare for DGK-zeta). The third step was ion exchange chromatography, and differed for the two isoforms.

[5] = system: pre-activated CD4 T cells and Raji cells; assay: Raji CD4 T Cell IL2 Assay; type: cell-based

T1 sequence (P23743 other isoform, or with tags, fused parts or gaps): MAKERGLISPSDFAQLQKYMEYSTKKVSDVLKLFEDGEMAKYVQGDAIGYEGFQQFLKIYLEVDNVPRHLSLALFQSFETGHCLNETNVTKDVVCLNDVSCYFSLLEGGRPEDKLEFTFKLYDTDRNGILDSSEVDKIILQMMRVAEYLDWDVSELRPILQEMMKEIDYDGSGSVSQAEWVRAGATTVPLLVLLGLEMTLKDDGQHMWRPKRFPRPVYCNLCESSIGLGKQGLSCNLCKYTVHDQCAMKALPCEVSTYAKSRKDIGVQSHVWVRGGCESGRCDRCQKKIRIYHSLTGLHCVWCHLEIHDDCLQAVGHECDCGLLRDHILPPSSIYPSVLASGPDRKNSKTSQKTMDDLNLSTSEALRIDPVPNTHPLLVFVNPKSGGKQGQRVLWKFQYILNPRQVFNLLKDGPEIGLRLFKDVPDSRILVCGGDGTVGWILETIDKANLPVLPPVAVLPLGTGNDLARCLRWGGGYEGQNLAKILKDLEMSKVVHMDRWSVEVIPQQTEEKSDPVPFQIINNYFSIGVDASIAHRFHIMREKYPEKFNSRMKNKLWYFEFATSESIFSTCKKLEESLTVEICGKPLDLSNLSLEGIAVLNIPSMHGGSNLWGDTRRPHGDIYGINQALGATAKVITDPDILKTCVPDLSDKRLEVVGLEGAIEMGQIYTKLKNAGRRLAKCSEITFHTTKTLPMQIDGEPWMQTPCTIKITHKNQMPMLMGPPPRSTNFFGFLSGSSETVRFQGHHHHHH
T2 sequence (Q13574 other isoform, or with tags, fused parts or gaps): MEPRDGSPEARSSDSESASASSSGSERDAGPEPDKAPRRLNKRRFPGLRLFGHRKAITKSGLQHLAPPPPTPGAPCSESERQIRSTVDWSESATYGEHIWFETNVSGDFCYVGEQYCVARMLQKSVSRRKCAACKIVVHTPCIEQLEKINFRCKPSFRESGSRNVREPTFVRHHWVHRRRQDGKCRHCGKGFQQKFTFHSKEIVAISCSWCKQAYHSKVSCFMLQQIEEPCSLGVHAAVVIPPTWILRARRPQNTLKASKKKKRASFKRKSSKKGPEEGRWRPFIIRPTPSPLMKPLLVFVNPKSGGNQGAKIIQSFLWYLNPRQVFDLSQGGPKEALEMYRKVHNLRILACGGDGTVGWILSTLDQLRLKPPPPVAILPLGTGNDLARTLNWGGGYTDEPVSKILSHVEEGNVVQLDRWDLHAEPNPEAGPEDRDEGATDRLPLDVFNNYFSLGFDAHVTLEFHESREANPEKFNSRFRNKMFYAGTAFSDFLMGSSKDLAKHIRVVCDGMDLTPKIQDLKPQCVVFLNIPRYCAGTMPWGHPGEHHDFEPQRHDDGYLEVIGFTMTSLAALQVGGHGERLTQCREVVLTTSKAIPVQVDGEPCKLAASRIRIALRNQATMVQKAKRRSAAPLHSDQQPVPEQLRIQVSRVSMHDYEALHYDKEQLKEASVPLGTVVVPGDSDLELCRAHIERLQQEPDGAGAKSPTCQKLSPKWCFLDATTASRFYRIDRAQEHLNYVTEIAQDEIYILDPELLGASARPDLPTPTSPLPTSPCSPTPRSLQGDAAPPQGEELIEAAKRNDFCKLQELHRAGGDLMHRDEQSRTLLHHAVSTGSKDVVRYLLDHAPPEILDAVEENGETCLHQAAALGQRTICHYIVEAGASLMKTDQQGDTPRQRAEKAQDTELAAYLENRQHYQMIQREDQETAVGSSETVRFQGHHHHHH

Compound	IC50 (human DGKα [1]) [µM]	IC50 (human DGKζ [2]) [µM]	IC50 (human DGKζ [3]) [µM]	IC50 (human DGKα [4]) [µM]	IC50 [5] [µM]	IC50 ([5]; Homo sapiens, Raji) [µM]
Cn1c(=O)c([N+](=O)[O-])c(N2CCN(C(c3ccc(F)cc3)C3CC3)CC2)c2nc(C#N)ccc21 (single isomer, unassigned) [Example 50, 8-(4-(cyclopropyl(4-fluorophenyl)methyl)piperazin-1-yl)-5-methyl-7-nitro-6-oxo-5,6-dihydro-1,5-naphthyridine-2-carbonitrile]	0.99	5.7	39	2.1	0.039	–
Cn1c(=O)c(C#N)c(N2CCN(C(c3ccccc3)c3ccccc3)CC2)c2ncccc21 [Example 196, 4-(4-benzhydrylpiperazin-1-yl)-1-methyl-2-oxo-1,2-dihydro-1,5-naphthyridine-3-carbonitrile]	4	43	> 240	2.7	–	2.1
Cn1c(=O)c(C#N)c(N2CCN(C(c3ccccc3)c3ccccc3)CC2)c2nc(Cl)ccc21 [Example 358, 6-chloro-4-[4-(diphenylmethyl)piperazin-1-yl]-1-methyl-2-oxo-1,2-dihydro-1,5-naphthyridine-3-carbonitrile]	–	> 240	–	> 240	–	6.5
CC(c1ccc(F)cc1)N1CCN(c2c(C#N)c(=O)n(C)c3ccc(Br)nc23)CC1 (single isomer, unassigned) [Example 24, 6-bromo-4-{4-[1-(4-fluorophenyl)ethyl]piperazin-1-yl}-1-methyl-2-oxo-1,2-dihydro-1,5-naphthyridine-3-carbonitrile]	0.034	90	> 240	0.15	0.012	–
CCn1ccc2c(CN3CCN(c4c(C#N)c(=O)n(C)c5ccc(Br)nc45)CC3)cccc21 [Example 225, 6-bromo-4-(4-((1-ethyl-1H-indol-4-yl)methyl)piperazin-1-yl)-1-methyl-2-oxo-1,2-dihydro-1,5-naphthyridine-3-carbonitrile]	0.39	1.3	14	0.82	–	0.07
O=c1c([N+](=O)[O-])c(N2CCN(C(c3ccccc3)c3ccccc3)CC2)c2ncccc2n1CCC1OCCCO1 [Example 166, 1-(2-(1,3-dioxan-2-yl)ethyl)-4-(4-benzhydrylpiperazin-1-yl)-3-nitro-1,5-naphthyridin-2(1H)-one]	–	230	–	210	–	3.8
COc1ccc2c(n1)c(N1CCN(C(c3ccc(F)cc3)c3ccc(F)cc3)CC1)c(C#N)c(=O)n2C [Example 103, 4-(4-(bis(4-fluorophenyl)methyl)piperazin-1-yl)-6-methoxy-1-methyl-2-oxo-1,2-dihydro-1,5-naphthyridine-3-carbonitrile]	–	0.99	–	6.1	–	0.4
Cn1c(=O)c(C#N)c(N2CCN(Cc3ccc(F)cc3)CC2)c2nc(Cl)ccc21 [Example 308, 6-chloro-4-{4-[(4-fluorophenyl)methyl]piperazin-1-yl}-1-methyl-2-oxo-1,2-dihydro-1,5-naphthyridine-3-carbonitrile]	0.19	13	–	0.95	–	0.21
Cn1c(=O)c([N+](=O)[O-])c(N2CCN(Cc3cccc4ccccc34)CC2)c2nc(Br)ccc21 [Example 55, 6-bromo-1-methyl-4-(4-(naphthalen-1-ylmethyl)piperazin-1-yl)-3-nitro-1,5-naphthyridin-2(1H)-one]	–	1.8	–	0.19	–	0.038
C=CCn1c(=O)c([N+](=O)[O-])c(N2CCN(C(c3ccccc3)c3ccccc3)CC2)c2ncccc21 [Example 176, 1-all-4-(4-benzhydrylpiperazin-1-yl)-3-nitro-1,5-naphthyridin-2(1H)-one]	–	27	–	> 240	–	3
Cc1ccc2c(n1)c(N1CCN(C(c3ccc(F)cc3)c3ccc(F)cc3)CC1)c(C(=O)C(F)(F)F)c(=O)n2C [Example 228, 4-(4-(bis(4-fluorophenyl)methyl)piperazin-1-yl)-1,6-dimethyl-3-(2,2,2-trifluoroacetyl)-1,5-naphthyridin-2(1H)-one]	–	9.7	> 240	> 240	–	0.11
Cn1c(=O)cc(N2CCN(C(c3ccc(F)cc3)c3ccc(F)cc3)CC2)c2ncccc21 [Example 426, 4-(4-(bis(4-fluorophenyl)methyl)piperazin-1-yl)-1-methyl-1,5-naphthyridin-2(1H)-one]	–	> 240	–	170	–	20
COc1ccc2c(n1)c(N1CCN(C(c3ccc(F)cc3)c3ccccc3O)CC1)c(C#N)c(=O)n2C (centres unmarked) [Example 104, 4-(4-((4-fluorophenyl)(2-hydroxyphenyl)methyl)piperazin-1-yl)-6-methoxy-1-methyl-2-oxo-1,2-dihydro-1,5-naphthyridine-3-carbonitrile]	–	0.78	–	0.74	–	0.44
Cn1c(=O)c([N+](=O)[O-])c(N2CCN(C(C)(C)c3ccc(F)cc3)CC2)c2nc(C#N)ccc21 [Example 260, 8-{4-[2-(4-fluorophenyl)propan-2-yl]piperazin-1-yl}-5-methyl-7-nitro-6-oxo-5,6-dihydro-1,5-naphthyridine-2-carbonitrile]	0.35	5.3	–	1.6	–	0.018

Source: patent US11866430B2, “Naphthyridinone compounds useful as T cell activators” (priority 2018, dated 2024)
